One compound from patent US11787847B2, “Method of identifying malodor modulating compounds” (FIRMENICH SA, priority 2017, dated 2023) can be followed below.

Assay [1] has as its system cells that do not express the odorant receptors (HEK293T). Briefly: Mock transfection control experiment (Example 5). The assay is classed as cell-based. As for the experimental part: Functional dose-response experiments were performed to evaluate the level of DMTS activity of the modified cell line expressing individual putative DMTS receptors. Using a cell-based assay, mouse receptor Olfr1193, Olfr1093, Olfr1097, Olrf166, Olfr169, Olfr738 and Olfr742, and human receptor OR4S2 and OR52N5 were tested in an HEK293T cell line wherein the endogenous RTP1 gene has been activated and the odorant receptor chaperone protein was expressed (described in WO2016/201153). The mouse receptor genes were tagged with a Lucy-FLAG®-Rho tag combination and the human receptors were tagged with a Rho-FLAG® tag combination resulting in a tag:receptor fusion protein for the cell based assay. Receptor genes were co-transfected with the canonical olfactory human G-protein alpha subunit Golf gene and were exposed to increasing concentrations of the malodor odorant. Co-expression of the human Golf activates the Gs transduction pathway that leads to an internal cAMP increase upon binding to the appropriate ligand. Odorant-induced activity was detected by measuring the cAMP increase in the cytosol using an Homogeneous Time Resolved Fluorescence (HTRF) based kit (CisBio, cAMP dynamic 2 kit, cat. 62AM4PEJ). […]

The target in assay [2] is T1, human receptor OR5AC2 (Homo sapiens, UniProt Q9NZP5).
T1 construct: The receptors were tagged with a FLAG®-Rho tag combination; expressed in transfected cells
T1 sequence (Q9NZP5 1-309): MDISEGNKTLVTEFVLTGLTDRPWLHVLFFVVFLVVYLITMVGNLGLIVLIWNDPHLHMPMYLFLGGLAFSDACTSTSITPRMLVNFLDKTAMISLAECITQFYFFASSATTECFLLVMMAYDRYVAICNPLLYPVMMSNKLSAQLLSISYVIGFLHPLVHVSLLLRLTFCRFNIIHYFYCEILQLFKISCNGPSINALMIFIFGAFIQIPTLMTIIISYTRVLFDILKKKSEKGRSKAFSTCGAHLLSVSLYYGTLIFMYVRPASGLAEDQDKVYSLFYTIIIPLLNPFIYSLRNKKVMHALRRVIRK
The assay can be described thus: cell-based dose-response, Ca2+ increase (Calcium 5 dye, FLIPR), HEK293T line stably expressing FLAG-Rho tagged receptor with human Gα15. The settings on record: FIG. 3, Example 3, SEQ ID NO: 32, stable HEK293T. As for the experimental part: (§1) Functional dose-response experiments were performed to evaluate the level of DMTS activity of the modified cell lines expressing individual putative DMTS receptors. A cell line stably expressing a human receptor was generated in a HEK293T cell line for each of the following human receptors: OR2L13, OR4C15, OR5AC2, OR8H3, OR11G2 or OR52N2. The receptors were tagged with a FLAG®-Rho tag combination and stably co-expressed with the human G-protein alpha subunit Gals for the cell based assay. Co-expression of the human Gals activates the Gq transduction pathway that leads to an internal Ca^2+ increase upon binding to the appropriate ligand. Receptors were exposed to increasing concentrations of DMTS. Odorant-induced activity was detected by measuring the Ca^2+ increase in the cytosol using a calcium sensitive fluorescent dye (Molecular Devices, Calcium 5 dye, cat. R8186) and measuring the change in Relative Fluorescence Ratio (RFU) using a fluorometric imaging plate reader (Molecular Devices, FLIPR) following odorant exposure. […] A cell line lacking a receptor was used as a control for non-specific activity at high compound concentrations (‘No receptor’). The activity levels are reported by the potency of the DMTS induced-response for each receptor as a measure of the EC50 value.

Assay [3] addresses T2, human receptor OR2L13 (Homo sapiens, UniProt Q8N349).
T2 construct: The receptors were tagged with a FLAG®-Rho tag combination; expressed in transfected cells
T2 sequence (Q8N349 1-312): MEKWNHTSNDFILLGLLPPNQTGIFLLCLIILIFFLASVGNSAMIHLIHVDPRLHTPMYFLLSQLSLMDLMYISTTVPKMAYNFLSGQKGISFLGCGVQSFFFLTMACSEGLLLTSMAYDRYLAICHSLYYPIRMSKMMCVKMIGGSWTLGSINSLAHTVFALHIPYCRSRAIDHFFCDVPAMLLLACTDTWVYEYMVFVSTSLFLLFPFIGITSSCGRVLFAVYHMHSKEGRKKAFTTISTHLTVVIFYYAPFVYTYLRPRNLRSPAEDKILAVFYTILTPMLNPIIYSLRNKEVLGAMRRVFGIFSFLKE
The assay is described as above. The settings on record: FIG. 3, Example 3, SEQ ID NO: 26, stable HEK293T. As for the experimental part: as §1

Assay [4] deals with T3, human receptor OR11G2 (Homo sapiens, UniProt Q8NGC1).
T3 construct: The receptors were tagged with a FLAG®-Rho tag combination; expressed in transfected cells
T3 sequence (Q8NGC1 35-345 limits assumed): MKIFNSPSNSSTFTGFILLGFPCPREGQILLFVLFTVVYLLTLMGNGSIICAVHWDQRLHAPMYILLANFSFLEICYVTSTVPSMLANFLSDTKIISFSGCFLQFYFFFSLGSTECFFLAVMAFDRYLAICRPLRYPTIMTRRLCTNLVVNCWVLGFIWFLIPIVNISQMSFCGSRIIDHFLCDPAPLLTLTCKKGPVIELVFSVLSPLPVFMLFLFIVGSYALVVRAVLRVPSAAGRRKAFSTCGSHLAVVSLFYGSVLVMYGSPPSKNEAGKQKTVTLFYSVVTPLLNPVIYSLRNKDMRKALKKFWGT
The description is as above. To be noted: FIG. 3, Example 3, SEQ ID NO: 36, stable HEK293T. As for the experimental part: as §1

Assay [5] addresses T4, human receptor OR8H3 (Homo sapiens, UniProt Q8N146).
T4 construct: The receptors were tagged with a FLAG®-Rho tag combination; expressed in transfected cells
T4 sequence (Q8N146 1-312): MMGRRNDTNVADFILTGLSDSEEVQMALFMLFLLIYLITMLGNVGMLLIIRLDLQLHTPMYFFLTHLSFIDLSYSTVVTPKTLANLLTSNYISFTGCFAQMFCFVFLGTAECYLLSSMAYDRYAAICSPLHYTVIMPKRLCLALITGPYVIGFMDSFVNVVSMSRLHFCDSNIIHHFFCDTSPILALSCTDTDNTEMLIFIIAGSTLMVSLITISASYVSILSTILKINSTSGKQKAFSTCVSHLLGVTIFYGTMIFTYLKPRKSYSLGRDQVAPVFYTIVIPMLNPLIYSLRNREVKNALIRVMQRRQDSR
The assay is described as above. To be noted: FIG. 3, Example 3, SEQ ID NO: 34, stable HEK293T. The protocol: as §1

For `CSSSC` [DMTS, dimethyl trisulfide], the “activity upon exposure in mock transfected cells” value in assay [1] is given as “did not show activity”. For the same compound, the EC50 was determined as 27 µM in assay [2], 59 µM in assay [3], 12 µM in assay [4] and 62 µM in assay [5].
